# In patent publication US20110070186A1 (priority 2009, published 2011):
# Tested on: DU-145 cells
# Assay type: cell-based, human
structure (smiles),measurement,value
C=C1[C@@H](C)[C@H]2[C@H](Cc3ccccc3)NC(=O)[C@]23[C@H](OC(C)=O)/C=C/[C@@](C)(O)C(=O)[C@@H](C)C/C=C/[C@H]3[C@@H]1O [Cytochalasin-D],Effect on cell migration (in words),did not migrate
same,"Relative Wound Density at 24 Hours, Mean",3.3 ± 0.2
same,"Relative Wound Density at 24 Hours, Percent Relative to Media",4%
